Data on one molecule can be found in paper PMC10892984, “Novel Antineoplastic Inducers of Mitochondrial Apoptosis in Human Cancer Cells” (Molecules, 2024).

The test system of one data set is HIV-1LAI. The experiment in a line: HIV-1LAI replication reverse transcriptase assay in primary PBM cells. The data set is classed as cell-based, human immunodeficiency virus type 1. The method, then: The cytotoxicity and human immunodeficiency virus type 1 (HIV-1) strain LAI replication assays were performed in freshly explanted primary human peripheral blood mononuclear cells (PBM cells) according to published procedures. The assays were conducted at least in triplicate and treated statistically (if possible). HIV-1LAI (= HIV-1BRU = LAV-1) was assayed in primary human peripheral blood lymphocyte (PBL) cells in the presence of a drug being evaluated. The parameter for antiviral activity was a reduction in reverse transcriptase (RT) activity in the cell supernatant after Triton X–100-mediated lysis of released virions, as measured using [5α-^3H]dTTP (5α-tritiated thymidine 5′-triphosphate) incorporation into poly(rA)•poly(dT) directed by the primed RNA template poly(rA)•oligo(dT). […] The detailed assay methodology was reported by Schinazi et al. as based on an older assay system of Spira et al.. The experiments were conducted in triplicate and treated statistically using regression curve analysis (r^2 coefficient of determination). The RT inhibitor AZT (zidovudine, 3′-azido-3′-deoxythymidine; RETROVIR™) served as a positive control. Cytotoxicity on PBL and the other cells (CCRF−CEM, Vero) exerted by the test compounds was determined as described by Stuyver et al. by application of the CellTiter 96® AQueous One Solution Cell Proliferation Assay (Promega Corp., Madison, WI, USA). Briefly, the phenazine ethosulfate (PES)-coupled reduction of the tetrazolium salt 3-(4,5-dimethylthiazol-2-yl)-5-(3-carboxymethoxyphenyl)-2-(4-sulfophenyl)-2H-tetrazolium (MTS) to a purple, water-soluble formazan by living, undamaged cells was measured.

Data set [1] can be described thus: Cytotoxicity (CellTiter 96 AQueous One, MTS). The data set is classed as cell-based. Particulars: human; PBM cells. The protocol:
The cytotoxicity and human immunodeficiency virus type 1 (HIV-1) strain LAI replication assays were performed in freshly explanted primary human peripheral blood mononuclear cells (PBM cells) according to published procedures. The assays were conducted at least in triplicate and treated statistically (if possible). HIV-1LAI (= HIV-1BRU = LAV-1) was assayed in primary human peripheral blood lymphocyte (PBL) cells in the presence of a drug being evaluated. The parameter for antiviral activity was a reduction in reverse transcriptase (RT) activity in the cell supernatant after Triton X–100-mediated lysis of released virions, as measured using [5α-^3H]dTTP (5α-tritiated thymidine 5′-triphosphate) incorporation into poly(rA)•poly(dT) directed by the primed RNA template poly(rA)•oligo(dT). […] Cytotoxicity on PBL and the other cells (CCRF−CEM, Vero) exerted by the test compounds was determined as described by Stuyver et al. by application of the CellTiter 96® AQueous One Solution Cell Proliferation Assay (Promega Corp., Madison, WI, USA). Briefly, the phenazine ethosulfate (PES)-coupled reduction of the tetrazolium salt 3-(4,5-dimethylthiazol-2-yl)-5-(3-carboxymethoxyphenyl)-2-(4-sulfophenyl)-2H-tetrazolium (MTS) to a purple, water-soluble formazan by living, undamaged cells was measured.

On to `c1cc(CNC23CC4CC(CC(C4)C2)C3)cc(C[N+](Cc2cccc(CNC34CC5CC(CC(C5)C3)C4)c2)(Cc2cccc(CNC34CC5CC(CC(C5)C3)C4)c2)Cc2cccc(CNC34CC5CC(CC(C5)C3)C4)c2)c1` (stereo not drawn) [Compound 1, tetrakis{3-[(tricyclo[3.3.1.1^3,7]decan-1-ammonio)methyl]benzyl}ammonium pentachloride], for which the EC50 in the data set on HIV-1LAI (Human immunodeficiency virus 1, PBMC, primary human PBM cells, reverse transcriptase activity in supernatant, read-out: Anti-HIV-1LAI activity EC50) came out at 0.56 µM. Moreover, in the data set on HIV-1LAI (Human immunodeficiency virus 1, PBMC, primary human PBM cells, reverse transcriptase activity in supernatant, read-out: Anti-HIV-1LAI activity EC90), the EC90 came out at 4.3 µM. The “SI50, selectivity index CC50/EC50” value with HIV-1LAI (PBM cells) is 3.9. For the same molecule, the CC50 in data set [1] is 2.2 µM. In the data set on HL-60 (TB) (HL-60 (TB), leukemia, mutant p53, 48 h), this molecule yielded a TGI of 2.71 µM. It took 0.87 µM to inhibit growth with HL-60 (TB) (Homo sapiens, HL-60, 48 h) by half (GI50).
